According to patent publication US20240285649A1, “PROGESTOGEN FORMULATIONS FOR USE IN MODULATING A CYTOKINE STORM MEDIATOR” (Shenzhen Evergreen Therapeutics Co., Ltd, priority 2020, published 2024):

Assays:
[1] = PK of PR2005 formulations (oral gavage, capsule, IM) in female dogs, relative bioavailability vs MAKENA; type: in vivo; conditions: 750 mg compared to 250 mg
From the text: This study determined the pharmacokinetic parameters of the test drug PR2005 (also referred to herein as 17-HPC) in different formulations after oral gavage or capsule administrations in dogs. This study further determined the relative bioavailability of the test drug PR2005 in each formulation, compared to intramuscular injection solution (MAKENA®).
PK parameters were estimated, including maximum plasma drug concentration (Cmax), time to reach Cmax (Tmax), time delay in absorption process (Tlag), area under the plasma concentration-time curve from time 0 to the last quantifiable data point (AUClast), area under the plasma concentration-time curve from time zero to infinity (AUCinf), plasma half-life (t1/2) and apparent plasma clearance (CL/F), apparent volume of distribution (Vz/F). All these parameters were computed using standard non-compartmental methods of analysis. […] Plasma PR2005 PK data was analyzed in Phoenix WinNonLin 8.1 (Certara USA, Inc.).
Log-transformed values of AUCinf were analyzed using a linear mixed-effects model. […] After back transformation from the log scale, estimates of geometric LSM and 90% CI for the ratio of means were calculated. Relative bioavailability (Fr %) was calculated as the ratio of dose normalized geometric least square mean (LSM) for test formulation and IM solution: […]

[2] = system: IL-6, IL-17, TNF-α and IL-1β; assay: Serum and BALF cytokine levels by ELISA in COPD rats; type: in vivo, Wistar rats; conditions: aside from the low dose (0.1 mg/ml) 17-HPC group
Procedure: (§1) To examine the in vitro and in vivo efficacy of 17-HPC inhalation in chronic obstructive pulmonary disease (COPD) rats, a rat model of COPD was established by exposing Wistar rats to CS for 1 hour every day for a total of 180 days. Seventy-two Wistar rats were randomly divided into the blank control group, model group, 17-HPC (0.5 mg/ml, 0.25 mg/ml and 0.1 mg/ml) groups, BUD (0.5 mg/ml and 0.1 mg/ml) groups, and combination treatment (0.5 mg/ml BUD+0.25 mg/ml 17-HPC and 0.1 mg/ml BUD+0.25 mg/ml 17-HPC) groups. Drug concentration is the nebulized solution concentration. Lung function (forced vital capacity) of rats was measured using the small animal spirometer, and differential count in the BALF was determined under the microscope. Serum and BALF cytokine (IL-6, IL-17, TNF-α and IL-β) levels were measured by ELISA. Inflammatory cell infiltration area and MLI in rat lung tissues were determined by HE staining.

[3] = molecular target: ABCB1 efflux transporters (Homo sapiens, UniProt P08183); conditions: literature (Bloise et al. 2016); cited from earlier work
Chain of ABCB1 efflux transporters (P08183 whole entry): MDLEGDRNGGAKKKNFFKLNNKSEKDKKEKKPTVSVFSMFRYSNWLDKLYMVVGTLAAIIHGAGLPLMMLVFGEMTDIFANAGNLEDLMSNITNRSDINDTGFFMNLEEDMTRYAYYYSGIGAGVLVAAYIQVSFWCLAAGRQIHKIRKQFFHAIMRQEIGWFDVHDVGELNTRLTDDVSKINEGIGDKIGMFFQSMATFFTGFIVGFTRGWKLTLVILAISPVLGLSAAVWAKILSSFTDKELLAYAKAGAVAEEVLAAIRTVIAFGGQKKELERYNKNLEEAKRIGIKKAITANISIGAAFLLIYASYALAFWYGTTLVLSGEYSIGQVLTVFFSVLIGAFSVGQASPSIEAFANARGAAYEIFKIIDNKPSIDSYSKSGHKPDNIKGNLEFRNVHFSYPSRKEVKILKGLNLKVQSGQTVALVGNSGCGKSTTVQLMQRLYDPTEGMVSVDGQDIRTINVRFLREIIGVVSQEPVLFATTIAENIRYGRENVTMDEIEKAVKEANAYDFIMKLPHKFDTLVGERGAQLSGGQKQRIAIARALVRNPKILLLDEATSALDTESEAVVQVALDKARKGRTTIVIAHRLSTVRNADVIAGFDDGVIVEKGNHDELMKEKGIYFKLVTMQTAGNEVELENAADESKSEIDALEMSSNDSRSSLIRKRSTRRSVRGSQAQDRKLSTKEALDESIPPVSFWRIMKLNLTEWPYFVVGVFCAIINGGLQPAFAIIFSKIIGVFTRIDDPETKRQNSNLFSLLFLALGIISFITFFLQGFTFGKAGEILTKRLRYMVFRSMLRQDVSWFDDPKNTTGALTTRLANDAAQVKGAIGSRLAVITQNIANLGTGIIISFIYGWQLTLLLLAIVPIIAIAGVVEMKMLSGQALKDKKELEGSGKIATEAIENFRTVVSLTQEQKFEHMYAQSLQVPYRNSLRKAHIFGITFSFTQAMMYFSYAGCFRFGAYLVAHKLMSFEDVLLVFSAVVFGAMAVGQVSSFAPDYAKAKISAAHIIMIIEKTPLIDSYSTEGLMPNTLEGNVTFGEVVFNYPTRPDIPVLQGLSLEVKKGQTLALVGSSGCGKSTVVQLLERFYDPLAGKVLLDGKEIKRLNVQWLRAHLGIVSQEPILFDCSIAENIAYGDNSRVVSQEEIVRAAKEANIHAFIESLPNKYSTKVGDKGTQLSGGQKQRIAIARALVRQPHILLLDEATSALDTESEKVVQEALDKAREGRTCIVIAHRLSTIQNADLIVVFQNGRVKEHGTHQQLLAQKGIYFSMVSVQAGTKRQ

[4] = system: Sprague-Dawley rats; assay: Seven-day inhalation toxicity study in rats (GLP); type: in vivo
Procedure: A 7-day inhalation toxicity study in rats was conducted under GLP conditions. In this study, aerosolized 17-HPC was administered to Sprague-Dawley rats (10/sex/group) at 8, 24, and 72 mg/kg/day for 7 consecutive days. A control group of rats was dosed with aerosolized vehicle. Animals were observed daily for clinical signs. Body weight and food consumption were recorded at pretest, and then on Days 1, 4, and 7. In order to evaluate reversibility of 17-HPC treatment, a satellite rat group (5/sex/group) was dosed by inhalation at 72 mg/kg/day for 7 days, and then was sacrificed on Day 14. Except for the rats in the satellite group, all animals were sacrificed on Day 8. Hematology and biochemistry examinations were performed at the end of the study. Organ weight, gross pathology, and histopathology evaluations were performed.

[5] = system: smoke exposure-induced COPD rats; assay: Pharmacodynamic study of 17-HPC inhalation in smoke exposure-induced COPD rats (lung function, BALF differential count, HE staining, body weight); type: in vivo, Wistar rats; conditions: for weight increase: at 24 weeks
Procedure: as §1, with “Seventy-two” for “To examine the in vitro and in vivo efficacy of 17-HPC inhalation in chronic obstructive pulmonary disease (COPD) rats, a rat model of COPD was established by exposing Wistar rats to CS for 1 hour every day for a total of 180 days. Seventy-two”

SMILES: CCCCCC(=O)O[C@]1(C(C)=O)CC[C@H]2[C@@H]3CCC4=CC(=O)CC[C@]4(C)[C@H]3CC[C@@]21C [Solution 17-HPC, 17-[(1-Oxohexyl)oxyl]-pregn-4-ene-3,20-dione]
- dose proportionality of Cmax and AUC [1]: generally greater than dose proportional
- TNF-α, IL-1β, IL-6 and IL-17 levels in the BALF [2]: can downregulate TNF-α, IL-1β, IL-6 and IL-17 levels in the BALF
- efflux transporter substrate [3]: substrate of ABCB1 efflux transporters
- clinical signs and body weight change ([4]; 8 mg/kg/day group, inhalation 7 days, preliminary): no clinical signs and body weight change were observed
- Hematological and biochemical parameters ([4]; 8 mg/kg/day vs vehicle, preliminary): comparable between the animals treated with vehicle and 17-HPC at 8 mg/kg/day
- organ weights, necropsy and histopathology ([4]; 8 mg/kg/day, preliminary): Significant changes in organ weights, necropsy and histopathology were not recorded
- NOAEL relative to proposed initial clinical dose (300 μg) based on body surface areas ([4]; rat NOAEL 48 mg/m^2/day vs 222 μg/m^2/day): approximately 216 times
- no observed adverse effect level (NOAEL), body surface ([4]; rats, inhalation, 7 consecutive days): 48 mg/m^2/day
- pathological alterations after 7-day recovery period ([4]; satellite group, 72 mg/kg/day for 7 days, sacrificed Day 14): no remarkable pathological alterations in any animals from the satellite group
- weight increase ([5]; vs model group): no difference in weight increase between the 17-HPC groups and the model group
- MLI ([5]; lung tissue, HE staining): decreased in the other 17-HPC groups and BUD groups in a dose-dependent manner
- inflammatory cell infiltration in lung tissues (HE staining) ([5]; nebulized inhalation): attenuated in the 17-HPC groups
- percentage of neutrophils in rat BALF ([5]; nebulized inhalation): reduced the percentage of neutrophils in rat BALF
- FEV0.2/FVC % ([5]; nebulized inhalation, vs model group, after 24 weeks of CS exposure): improved FEV0.2/FVC % in a dose-dependent manner

SMILES: CCCC1O[C@@H]2C[C@H]3[C@@H]4CCC5=CC(=O)C=C[C@]5(C)[C@H]4[C@@H](O)C[C@]3(C)[C@]2(C(=O)CO)O1 (stereo partly drawn) [BUD, budesonide]
- weight increase ([5]; vs model group): inhibited weight increase
